Measured values reported in patent US8158811B2, “Unsaturated fatty hydroxy acid derivatives and the dermocosmetologic use thereof” (Pierre Fabre Dermo-Cosmetique, priority 2005, dated 2012).

How the values were obtained:
ABCG1 = assay: keratinocyte differentiation, real-time RT-PCR of ABCG1 transcripts; assay type: cell-based, human; details: NHK, 48 hours
Experimental: (§1) Normal human keratinocytes (NHK) proliferate and differentiate in vitro, forming stratified layers which mimic the basal organisation of the skin. Extracellular calcium concentrations in excess of 0.1 mM initiate a cascade of genome and non-genome events which take the keratinocytes from a proliferative phase towards a differentiation phase. Keratinocyte differentiation can then be evaluated by studying the expression of several markers such as keratins 1 and 10, transglutaminase 1, desaturase DES2, involucrine, FATP4 and ABCG1 transporters. We therefore evaluated the effect of certain hydroxyalcene carboxylic acids in an in vitro culture model.
(§2) Normal human keratinocytes are isolated from skin explants. They are cultured in KSFM medium (Gibco) with a low calcium content (0.1 mM) containing 25 μg/ml of BPE (bovine pituitary extract) and […] of EGF (epithelium growth factor). 24 hours after culturing, differentiation is triggered by the addition of calcium (final concentration 1.2 mM). The active ingredients are added or not at the same time as calcium at concentrations of 100 and 1 μg/ml in order to determine whether or not they have a potentialising effect on differentiation. Cells were then analysed 48 hours after the addition of calcium and these products.
(§3) Total RNA was extracted under cold conditions from keratinocytes.
(§4) After reverse transcription of mRNA into cDNA, PCRs were made up in 96 well plates (iCycler quantitative PCR apparatus, BioRad). Expression of transcripts of transglutaminase, desaturase (DES2), ABCG1 and FATP4 were standardized with respect to the expression of reference genes (GAPDH, UBC, HPRT).

desaturase DES2 = assay: keratinocyte differentiation, real-time RT-PCR of DES2 transcripts; assay type: cell-based, human; details: NHK, 48 hours
Experimental: as §1, §2, §3, §4

transglutaminase 1 (TG1) = assay: keratinocyte differentiation, real-time RT-PCR of transglutaminase 1 transcripts; assay type: cell-based, human; details: NHK, 48 hours
Experimental: as §1, §2, §3, §4

[1] = test system: intracellular AOSs, fibroblast line L929; assay: in vitro assay of intracellular AOSs (H2DCF-DA probe) after H2O2/iron oxidative stress; assay type: cell-based, murin; details: pre-incubation 3 h
Text: We set up an in vitro study model of oxidative stress induced by H2O2/iron as H2O2 generates huge amounts of intracellular AOSs as a result of a chain reaction triggered by oxidation of membrane lipids.
This technique is based on the use of a fluorescent probe, 6-carboxy-2′,7′-dichlorodihydro fluorescein diacetate, di (acetoxymethyl ester) (H2DCF-DA) which once it penetrates into the cell is deacetylated by intracellular esterases and thus forms H2DCF. This product is oxidized by intracellular AOSs into a highly fluorescent compound: 2′,7′-dichlorofluorescein (DCF) (Suematsu M et al., 1996, Free Radicals Practical Approach, Punchard ed. P 83-99).
The materials and methods used for in vitro assay of intracellular AOSs are given below. • a) Cell tool • Cutaneous murin fibroblast cell line L929. • b) Materials • 96 well flat based microplate. • Cytofluor II cytofluorameter: Ref. PERCEPTIVE BIOSYSTEMS. • c) Reagents • Cell culture reagents: • Dulbecco's Modified Eagle Medium as the culture medium (DMEM) • Foetal calf serum • Phosphate buffer PBS pH 7.4 • Trypsin EDTA (1X) Fluorescent probe • 6-carboxy-2′,7′-dichlorodihydrofluorescein diacetate, di(acetoxymethyl ester) (PM.675,43) Cell stimulation products • Hydrogen peroxide (H2O2) 3% Ref. GIFRER (Gifrer Barbezat Laboratory) • Ferrous ammonium sulphate (Fe^2+) • Ferric ammonium sulphate (Fe^3+) • d) Products tested:
For the evaluation of unsaturated fatty hydroxy acid derivatives, the dilutions are prepared in freshly prepared culture medium for a concentration range of 0.02, 0.2, 2 and 20 ng/ml. • e) Protocol. Cell culturing.
Cells from the fibroblast line L929 were cultured in 96-well flat base microplates in 100 μl of DMEM supplemented with 10% foetal calf serum. These were incubated overnight at 37° C. in a humid atmosphere at 5% CO2. The blank plate without cells was evaluated using 6 wells.
Dilutions of the products to be tested and reference molecule were made up in culture medium without foetal calf serum then deposited in 7 wells at a rate of 100 μl per well.
Cells were then incubated for 3 hours at 37° C. in a humid atmosphere at 5% CO2.
Cells were rinsed in PBS 1X at a rate of 100 μl per well. They were then incubated for 30 minutes at 37° C. in a humid atmosphere at 5% CO2 with 50 μl of the H2DCF-DA probe at 5 μM.
After 30 minutes of contact with the probe alone, cells were incubated for 30 minutes at 37° C. in a humid atmosphere at 5% CO2 with the addition of 25 μl of H2O2 at 800 μM and 25 μl of ferrous iron and ferric iron solution at 8 mM in order to obtain final concentrations of 200 μM of H2O2 and 2 mM of ferrous iron and ferric iron.
Cells were then rinsed with PBS 1X at a rate of 100 μl per well then incubated for 30 minutes at 37° C. in a humid atmosphere at 5% CO2 with 100 μl of PBS 1X.
This incubation for 1 h 30 minutes at 37° C. allows intracellular esterases to deacetylate the probe into H2DCF which can be oxidized by the intracellular AOSs into DCF: a fluorescent compound whose formation is proportional to the quantity of intracellular AOSs.
The intensity of fluorescence is read on a cytofluorimeter at λexcitation=485 nm and λemission=530 nm. This reflects the amount of intracellular AOS produced.
The ratio below makes it possible to calculate the % protection against the production of intracellular AOSs for each product concentration tested (because the intensity of fluorescence or IF reflects the release of intracellular AOSs)
• Pre-incubation: 3 h • Number of tests=3 for all compounds. • Number of tests=18 for vit. E

FATP4 = assay: keratinocyte differentiation, real-time RT-PCR of FATP4 transcripts; assay type: cell-based, human; details: NHK, 48 hours
Experimental: as §1, §2, §3, §4

[2] = test system: membrane lipids, fibroblast line L929; assay: TBARS test, lipid peroxidation after H2O2/Fe2+/Fe3+; assay type: cell-based, murin; details: 0.02 ng/ml, pretreated 16 hours
Text: In order to evaluate membrane changes, we measured lipid peroxidation by in vitro assay of complexes between the products of lipid oxidation and thiobarbituric acid. These complexes are called TBARS (thiobarbituric acid reactive substances) and give the test its name: TBARS Test.
In order to mimic chemical oxidative stress, we treated a fibroblast line (L929) with a complex consisting of hydrogen peroxide (H2O2) and iron (Fe^2+/Fe^3+) thus reconstituting the Fenton reaction which is the source of oxygenated free radicals and particularly the hydroxyl radical (OH°) (D. A Vessey et al. 1992): H2O2+Fe^2+→OH°+OH^−+Fe^3+
The products were evaluated on a murin fibroblast line L929. Cells were pretreated with different concentrations of the product for 16 hours and were then stimulated with the H2O2/Fe^2+/Fe^3+ complex (200 μM−1 mM) for 1 hour. • Stock solutions: 100 mg/ml ethanol, 4° C. • Final solutions: 0.02 ng/ml.
Peroxidation of membrane lipids was analysed by measuring TBARS (Protocol ref. PLN°2, according to Morliere et al, 1991).
[…]. TBARS assays are therefore expressed in pmole/μg of protein. Proteins and TBARS are assayed in the intracellular medium.
Using the TBARS calculation in pmole/μg protein, we calculated the protective efficacy of various products against the oxidation of lipid membranes.
Four separate experiments were carried out. Several compounds were evaluated in the course of these experiments (the test only allows 10 molecules to be evaluated at one time). The compounds were evaluated several times and were chosen as a function of the results obtained in another test which also measured anti-radical activity (assay test for activated oxygen species).
The model used in this experiment (Fenton reaction) triggers considerable lipid peroxidation of the L929 fibroblasts. This massive release of the hydroxyl radical OH° thus generates oxidative stress in the cells, particularly in the membranes. However, in this type of oxidative reaction, the products resulting from lipid peroxidation are internalized in the cells and TBARS are therefore assayed in the intracellular medium.

prostaglandin 6KF1α = assay: production of prostaglandin 6KF1α by keratinocytes stimulated with calcium ionophore A23187 (ELISA); assay type: cell-based; details: 3 μg/ml, A23187 1 μm 5 hours
Experimental: A suspension of keratinocytes in DMEM 10% foetal calf serum was divided into 6 well plates (1.2. 106cells/wells) and incubated for 16 hours at 37° C. in a 5% CO2 atmosphere. The keratinocytes were then rinsed with PBS in order to eliminate non adhering cells then exposed to the products to be tested included in DMEM without foetal calf serum (which could interfere with the assay).
The concentration tested in culture was 3 μg/ml. This was retained as the test concentration after a preliminary evaluation test for cytotoxicity (neutral red) and is not cytotoxic.
For each treatment, three wells were tested. Cells were pre-incubated for 60 minutes with the products to be tested then a stimulating agent was added to stimulate the arachidonic acid cascade (calcium ionophore) which was added for 5 hours: calcium ionophore A23187 was used at a concentration of 1 μm.
After 5 hours in culture, the culture medium for each well was recovered, centrifuged at 3000 rpm and stored at −80° C.
The production of prostaglandin 6KF1α for each of the tests was measured using a EUROMEDEX Elisa Kit.
Results are expressed as the percentage activity/stimulated control.

Interleukin 8 = assay: release of Interleukin 8 by keratinocytes NHK stimulated with PMA + calcium ionophore A23187 (ELISA); assay type: cell-based, human; details: 3 μg/ml, keratinocytes, PMA + A23187 6 hours
Experimental: In this study, carried out using 96 well plates, we evaluated the activity of hydroxyl alkine acids on the production of Interleukin 8 produced in the keratinocytes by phorbol ester PMA and calcium ionophore A23187.
A suspension of keratinocytes in supplemented KSFM was divided between 96 well plates (3.10^4 cells/wells) and incubated for 16 hours at 37° C. under an atmosphere of 5% CO2. The keratinocytes were then rinsed with PBS in order to eliminate non adhering cells then exposed to the products to be tested included in non supplemented KSFM (which could interfere with the assay).
The concentration tested in culture was 3 μg/ml. This was retained after a preliminary test to evaluate cytotoxicity (neutral red) and is not cytotoxic.
3 wells were used for each treatment. Cells were preincubated for 60 minutes with the products to be tested then stimulated, in parallel to negative controls without stimulant: Phorbol Myristate Acetate (PMA) 1 μm+Calcium ionophore (A23187) 0.1 μm.
Incubation for 6 hours at 37° C. in a humid air atmosphere containing 5% CO2.
The culture medium for each of the wells was recovered, centrifuged at 3000 rpm and stored at −80° C.
Cytokine assay: IL8 was assayed using the ELISA kit immunoenzyme method (immunotech).
The results are given as percentage activity/stimulated control.
The compounds according to the invention were evaluated in terms of anti-inflammatory activity on the release of Interleukin 8 by human keratinocytes NHK stimulated by phorbol ester PMA+calcium ionophore A23187.

[3] = test system: membrane lipids, fibroblast line L929; assay: TBARS test, lipid peroxidation after H2O2/Fe2+/Fe3+; assay type: cell-based, murin; details: 400 μg/ml

Induction Factor vs Control (CaCl2 1.2 mM) DES2 (desaturase DES2; 1 μg/ml)	Induction Factor vs Control (CaCl2 1.2 mM) DES2 (desaturase DES2; 100 μg/ml)	Induction Factor vs Control (CaCl2 1.2 mM) TG1 (transglutaminase 1 (TG1); 1 μg/ml)	Induction Factor vs Control (CaCl2 1.2 mM) TG1 (transglutaminase 1 (TG1); 100 μg/ml)	Structure (SMILES)	Induction Factor vs Control (CaCl2 1.2 mM) ABCG1 (ABCG1; 1 μg/ml)	Induction Factor vs Control (CaCl2 1.2 mM) ABCG1 (ABCG1; 100 μg/ml)	Percentage inhibition of the intracellular production of AOS ([1]; 0.02 ng/ml, L929)	Percentage inhibition of the intracellular production of AOS ([1]; 0.2 ng/ml, L929)	Percentage inhibition of the intracellular production of AOS ([1]; 2 ng/ml, L929)	Percentage inhibition of the intracellular production of AOS ([1]; 20 ng/ml, L929)	Induction Factor vs Control (CaCl2 1.2 mM) FATP4 (FATP4; 1 μg/ml)	Induction Factor vs Control (CaCl2 1.2 mM) FATP4 (FATP4; 100 μg/ml)	% membrane lipid protection, Mean [2]	% inhibiting activity of evaluated molecules on the production of PG6KF1α Inflammation (prostaglandin 6KF1α)	% inhibition of IL-8 release (Interleukin 8)	Percentage inhibition of the intracellular production of AOS ([1]; 400 μg/ml, L929, 18 tests)	% membrane lipid protection, Mean [3]	% membrane lipid protection, Mean ([3]; listed as Vitamin E)
1.7	1.9	1.5	0.9	O=C(O)C(F)=CCCCCO (mixture of isomers) [n=3, R=H, Rn=H, R1=F]	1.5	1.2	3%	−3%	−32%	−51%	1.2	1.2	38.14%					
				O=C(O)/C=C/CCCCCCCCCO [n=8, R=H, Rn=H, R1=H, 12-hydroxy-dodeca-2t-enoic acid]										32%	Non-active			
2.8		1.7		O=C(O)C(F)=CCCCCCCCCCCCCCCCO (mixture of isomers) [n=14, R=H, Rn=H, R1=F]	4.0		6%	−17%	−26%	−42%	1.0		35.30%					
				Cc1c(C)c2c(c(C)c1O)CC[C@@](C)(CCC[C@H](C)CCC[C@H](C)CCCC(C)C)O2 [Vit. E, alphatocopherol]												Vit. E 400 μg/ml 47%	44.66%	protects cell membranes very effectively
